The results in this text go back to patent publication US20030108574A1, “Carbohydrate-based whole cell cancer vaccines” (priority 2001, published 2003).

Values joined by “and” are separate entries in the source; they are usually repeats but may differ in a detail not shown here. Identical values can stand only once.

In test [1] the test system is polysialic acid. As to conditions: RMA-S tumor-bearing mice, CY day 7, vaccine day 8.
Protocol: ELISA. Total IgG antibody was measured by ELISA. Each well of ELISA plate was coated with HAS conjugates (0.5 μl/50 μl PBS/well) of NAc or NPr polysialic acids (11 kDa fractions), and blocked with 150 μl of 10%FBS in PBS. The plates were then washed three times with PBS and Tween20 (0.05%). Sera were added into well of plate after serial dilutions. The plates were kept for 1 hour at room temperature. After washing, anti-mouse IgG conjugates with horseradish peroxide (50 μl) were added into each well of plate and incubated for 1 hour at room temperature. Plates were further washed five times with PBS and Tween20 (0.05%) and 100 Ill of substrate 2,2′-azino-bis-(3-ethylbenthiazoline-6-sulfonic acid)(1 mg/ml) in 44 mM Na2HPO4, 20 mM citric acid and 0.3% H2O2. The plates were read at 405 nm with reference wavelength of 490 nm.
(§2) Vaccine preparation and administration. RMA-S cells were incubated with ManNPr (1 mg/ml) for 48 hour, and after washing with PBS, they were suspended in PBS and killed by heating at 70° C. for 10 min. Mice were injected subcutaneously with 2×10^6 RMA-S cells at the area of rear flank to develop a solid tumor. […] Whole cell vaccines (2×10^6 cells) were inoculated at day 8 and tumor growth was monitored routinely.
Test [2] deals with RMA-S tumor. The experiment in a line: Spleen metastasis by limiting dilution of spleen cells.
Protocol: as §2
Limiting dilution-Cell suspension of the mouse spleen was prepared in RPMI 1640 medium. One fifth of each spleen suspension was used to initiate a 2-fold serial dilution with complete RPMI 1640 medium and the cells were cultured over 20 days. Cancer cells of metastasis of spleen were examined under the microscope.
One fifth of cell suspension of spleen was used to initiate a serial 2-fold dilution. Cells were cultured over 20 days and tumor cells from the spleen were examined under the microscope. The negative score was the cell culture that had no tumor cells in comparison of the positive score with tumor cells in cell culture.
Test [3] deals with P815 cells. The experiment in a line: Flow cytometry of polysialic acid and NPr polysialic acid expression on P815 cells incubated with ManNPr. It counts as cell-based, mouse. The note with it: 1 mg/ml ManNPr. As for the experimental part:
(§1) Flow Cytometry. For flow cytometry, cells were incubated with MAbs 13D9 or 735 in 50 μl of RPMI+1% FBS on ice for 30 min. The cells were then washed and incubated with FITC-labelled secondary antibodies. After 30 min the cells were washed and fixed in 1% formaldehyde and assayed on a flow cytometer (Coulter Incorporation, Miami, Fla.).
To identify a cell line allogeneic to RMA-S, but which was also able to express polysialic acid, a number of allogeneic tumor cell lines were screened by flow cytometric analysis using MAb 735 (data not shown). […] FIG. 1B illustrates NPr polysialic acid expression on the surface of tumor cells for P815 cells incubated with 1 mg/ml ManNPr in cell culture. The cells were harvested at intervals and the expression of polysialic acid and its NPr analog were measured as described above. P815 cells were treated with ManNPr for different time periods, and after washing, they were stained with either MAb 735 or MAb 13D9. […] Obviously the transformation of polysialic acid on the surface of P815 cells follows a different pattern from RMA-S RMA and RBL-2H3 (9) cell lines that already have higher initial levels of expression of polysialic acid. Heat-killed P815 cells, pretreated with ManNPr, were then used as the allogeneic vaccine.
For orientation: A flow cytometer gives signals particle by particle.

Test [4] concerns RMA-S cells. The experiment in a line: Flow cytometry of polysialic acid and NPr polysialic acid expression on RMA-S cells incubated with ManNPr. It is filed as cell-based, mouse. As for the experimental part: as §1
Preparation of vaccines. RMA-S cells derived from leukemic cell line RMA, are defective in transportation-associated proteins (12). However, RMA-S cells like those of the original RMA cells (9), can still incorporate ManNPr into their surface polysialic acid as shown by flow cytometric analysis. FIG. […] Following harvesting of the cells the expression of polysialic acid and its NPr analog were measured by flow cytometry using MAb 735 and MAb 13D9 respectively.
Heat-killed RMA-S cells pretreated with 1 mg/ml ManNPr for 48 h, were then used as the autologous vaccine.

Turning to `O=P1(N(CCCl)CCCl)NCCCO1` (centres unmarked) [CY, cyclophosphamide], in test [1], the “sera binding to polysialic acid” value is reported as “no binding”. Besides, the “Percentage of spleen metastasis” value in test [2] (Table 3 experiment) was found to be 75%. Also, the “Metastasis of Spleen, Percentage” value in test [2] (day 35, summary of two experiments) was “(78%)”. For the same compound, in test [2] (one cell per mouse, spleen cells cultured over 20 days), the “metastasis score of spleen of individual mouse (row head: Treatment)” value was “+ (3×) and −”.

With `CCC(=O)N[C@@H]1C(O)O[C@H](CO)[C@@H](O)[C@@H]1O` (some centres unmarked) [ManNPr, N-propionylmannosamine], the “binding of MAb 735 (polysialic acid) to the cell surface” value in test [3] was “slight increase in the binding of MAb 735”; in test [4] (increasing amounts of ManNPr) it was “binding to the cell surface became weaker”. The “shift of fluorescence on staining with MAb 13D9 (NPr polysialic acid)” value in test [3] (different time periods) is recorded as “large shift of fluorescence”. In addition, the “conversion of surface polysialic acid to NPr polysialic acid (staining with MAb 13D9)” value in test [4] (ManNPr at different concentrations) is reported as “significantly converted to NPr polysialic acid”.
